Tests used:
[1] = Selectivity ratio of IC50 for equine serum BChE to IC50 for electric eel AChE
Cholinesterase = Cholinesterase (Equus caballus, UniProt P81908); assay: Inhibition of equine serum BChE using butylthiocholine iodide as substrate preincubated for 10 mins prior to substrate addition by Ellman's method
Acetylcholinesterase = Acetylcholinesterase (Electrophorus electricus, UniProt O42275); assay: Inhibition of electric eel AChE using acetylthiocholine iodide as substrate preincubated for 10 mins prior to substrate addition by Ellman's method
Chain of Acetylcholinesterase (O42275 whole entry): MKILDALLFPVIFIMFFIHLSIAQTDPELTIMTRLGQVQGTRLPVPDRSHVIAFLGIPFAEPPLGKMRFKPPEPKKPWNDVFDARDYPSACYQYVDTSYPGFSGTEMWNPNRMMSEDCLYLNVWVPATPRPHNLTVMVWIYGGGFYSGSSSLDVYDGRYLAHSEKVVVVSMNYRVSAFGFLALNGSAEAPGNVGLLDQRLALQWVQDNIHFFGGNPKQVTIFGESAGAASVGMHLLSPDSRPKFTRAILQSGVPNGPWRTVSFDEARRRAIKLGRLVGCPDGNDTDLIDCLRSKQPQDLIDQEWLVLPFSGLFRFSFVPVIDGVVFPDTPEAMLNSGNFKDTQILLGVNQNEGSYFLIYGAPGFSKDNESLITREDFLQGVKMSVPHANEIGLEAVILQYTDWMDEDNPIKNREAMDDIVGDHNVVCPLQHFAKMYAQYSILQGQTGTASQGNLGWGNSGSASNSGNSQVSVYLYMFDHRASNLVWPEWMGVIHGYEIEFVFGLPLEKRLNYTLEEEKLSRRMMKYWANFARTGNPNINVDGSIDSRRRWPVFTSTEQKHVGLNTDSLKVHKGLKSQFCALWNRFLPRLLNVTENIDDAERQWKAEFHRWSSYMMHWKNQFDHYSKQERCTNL

[2] = Antioxidant activity assessed as Fe2+ formation by FRAP assay; assay type: functional

Chain of Cholinesterase (P81908 whole entry): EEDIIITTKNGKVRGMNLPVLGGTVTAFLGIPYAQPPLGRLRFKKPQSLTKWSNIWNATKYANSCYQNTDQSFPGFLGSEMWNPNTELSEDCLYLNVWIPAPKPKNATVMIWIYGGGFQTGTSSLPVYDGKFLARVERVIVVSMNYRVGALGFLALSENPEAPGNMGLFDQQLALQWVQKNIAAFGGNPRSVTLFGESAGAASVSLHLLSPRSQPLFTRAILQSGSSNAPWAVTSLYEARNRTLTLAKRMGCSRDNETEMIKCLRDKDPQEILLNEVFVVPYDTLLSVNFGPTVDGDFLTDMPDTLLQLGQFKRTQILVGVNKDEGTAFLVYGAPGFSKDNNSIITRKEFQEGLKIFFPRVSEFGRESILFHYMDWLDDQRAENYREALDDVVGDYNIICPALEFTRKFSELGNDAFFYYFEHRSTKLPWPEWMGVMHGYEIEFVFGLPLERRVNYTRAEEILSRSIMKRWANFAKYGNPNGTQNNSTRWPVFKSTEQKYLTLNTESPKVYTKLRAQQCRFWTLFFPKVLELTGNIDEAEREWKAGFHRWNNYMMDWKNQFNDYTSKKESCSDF

Row | SMILES | Ratio IC50 [1] | IC50 (Cholinesterase) | IC50 (Acetylcholinesterase) | Activity [2]
1 | O=C(COc1cc(=O)oc2ccccc12)N1CCN(c2ccc(F)cc2)CC1 | 34 | 76 µM | 2.1 µM | 
2 | O=C(COc1cc(=O)oc2ccccc12)N1CCC(O)(c2ccc(Cl)cc2)CC1 |  | > 100 µM | > 100 µM | 
3 | O=C(COc1cc(=O)oc2ccccc12)N1CCN(c2ccc(Cl)c(Cl)c2)CC1 | 34 | 89 µM | 2.3 µM | 
4 | O=C(CCCOc1cc(=O)oc2ccccc12)N1CCN(c2ccccc2)CC1 |  | > 100 µM | > 100 µM | 
5 | O=C(COc1cc(=O)oc2ccccc12)N1CCC(Cc2ccccc2)CC1 |  | 65 µM | 3.4 µM | 
6 | O=C(CCCOc1cc(=O)oc2ccccc12)NC1CCN(Cc2ccccc2)CC1 |  | 41 µM | 2.37 µM | 
7 | O=C(CCCOc1cc(=O)oc2ccccc12)N1CCC(O)(c2ccc(Br)cc2)CC1 |  | > 100 µM | > 100 µM | 
8 | O=C(CCCOc1cc(=O)oc2ccccc12)N1CCN(c2ccc(F)cc2)CC1 |  | > 100 µM | > 100 µM | 
9 | O=C(COc1cc(=O)oc2ccccc12)N1CCC(O)(c2ccc(Br)cc2)CC1 |  | > 100 µM | > 100 µM | 
10 | O=C(COc1cc(=O)oc2ccccc12)NC1CCN(Cc2ccccc2)CC1 | 37 | 45 µM | 1.2 µM | 
11 | O=C(COc1cc(=O)oc2ccccc12)N1CCN(c2ccccc2F)CC1 |  | > 100 µM | 12.1 µM | 
12 | O=C(CCCOc1cc(=O)oc2ccccc12)N1CCN(c2ccc(Cl)c(Cl)c2)CC1 |  | > 100 µM | > 100 µM | 
13 | O=C(CCCOc1cc(=O)oc2ccccc12)N1CCN(c2ccccc2F)CC1 |  | > 100 µM | > 100 µM | 
14 | O=C(CCCOc1cc(=O)oc2ccccc12)N1CCN(c2ccccc2O)CC1 |  | > 100 µM | > 100 µM | 770 mmol/g
15 | COc1ccc(CCNC(=O)CCCOc2cc(=O)oc3ccccc23)cc1OC |  | > 100 µM | > 100 µM | 
16 | O=C(CCCOc1cc(=O)oc2ccccc12)N1CCC(O)(c2ccc(Cl)cc2)CC1 |  | > 100 µM | > 100 µM | 
17 | O=C(CCCOc1cc(=O)oc2ccccc12)N1CCC(Cc2ccccc2)CC1 |  | 76 µM | 8 µM | 
18 | O=C1O[C@H]([C@@H](O)CO)C(O)=C1O |  |  |  | 2250 mmol/g
19 | O=C(COc1cc(=O)oc2ccccc12)N1CCN(c2ccccc2O)CC1 |  | > 100 µM | 21.2 µM | 840 mmol/g
20 | O=C(COc1cc(=O)oc2ccccc12)N1CCN(c2ccccc2)CC1 | 34 | > 100 µM | 2.9 µM | 

From ChEMBL document CHEMBL2390863, “Synthesis and evaluation of 4-substituted coumarins as novel acetylcholinesterase inhibitors” (Eur J Med Chem, 2013)
